Results taken from PubChem BioAssay (NCI).
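Tested at 5 concentrations; 48 h exposure; 96-well plates; endpoints linearly interpolated, else capped at highest concentration. At the GI50, growth is halved. The concentration for full growth arrest is given as TGI.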

The compounds below were run on MDA-MB-468 breast (assay: NCI tumour cell line growth inhibition, 48 h).
`NC(N)=N/N=C(/c1ccccc1)c1ccc(Cl)cc1` gave a GI50 of 2.4 µM and a TGI of 13 µM.
`O=c1oc2ccc(F)cc2c(=O)n1-c1ccc(Cl)cc1F` gave a GI50 of 1.51 µM and a TGI of 5.31 µM.
`Cc1cc(O)ccc1O` was tested, and the GI50 was 13.3 µM and the TGI was 27.3 µM.
Work on `CC(C)=CCc1ccc(O)c(=O)cc1C(C)C` yielded a GI50 of 0.868 µM and a TGI of 5.36 µM.
`Cc1cc(NCCCCNc2ccnc3cc(Cl)ccc23)nc(Nc2ccc(C(=O)N3CCCC3)cc2)n1` showed a GI50 of 1.82 µM and a TGI of 4.04 µM.
`COc1cc(C2CC(c3ccc(Nc4ccnc5cc(Cl)ccc45)cc3)=NN2C=O)cc(OC)c1OC` (configuration not stated) was tested, and the GI50 was 1.83 µM and the TGI was 4.38 µM.
`O=C(Nc1ccc(Cl)cc1)c1ccc([N+](=O)[O-])o1` was tested, and the GI50 was 3.08 µM and the TGI was 14.9 µM.
`CCCCCCCCCCCCCCCCOC(=O)c1c(C)[nH]c(/C=C2\N=C(c3ccc[nH]3)C=C2OC)c1C` was tested, and the GI50 was 1.66 µM and the TGI was 5.29 µM.
`Cn1ccnc1C(=O)/C=C/c1ccc(C(=O)Nc2ccccc2O)cc1` showed a GI50 of 1.6 µM and a TGI of 3.67 µM.
In the case of `CCN(CC)CCCNc1nc2ccccc2c2c(=O)c3cc(Cl)ccc3sc12`, the GI50 is reported as 1.59 µM and the TGI is reported as 4.85 µM.
Compound `COc1cc(Nc2ncc3c(C)nc(-c4cccc(Oc5ccccc5)c4)n3n2)cc(OC)c1OC` has a GI50 of 2.98 µM and a TGI of 18.4 µM.
Work on `O=C(N/N=c1/ccoc2cccnc12)N1CCN(c2ncccn2)CC1` yielded a GI50 of less than 0.01 µM and a TGI of 1.34 µM.
`COc1cc(OC)c2cc(C(=O)O)c(=O)oc2c1` gave a GI50 greater than 100 µM and a TGI greater than 100 µM.
For `CCOCC(=O)N[C@H]1CCc2cc(OC(=O)COCC)c(OC)c(OC)c2-c2ccc(SC)c(=O)cc21`, the GI50 was 0.0714 µM and the TGI was greater than 100 µM.
`CC(=O)Nc1ccc2c(c1)C(=O)c1cccc(F)c1-2` gave a GI50 of 15.2 µM and a TGI of 45.8 µM.
Compound `O=c1[nH]ccc2nc(-c3ccc(CN4CCC(c5nc(-c6ccccn6)n[nH]5)CC4)cc3)c(-c3ccccc3)cc12` has a GI50 of 0.0887 µM and a TGI of 7.14 µM.
`O=C1Nc2ccccc2/C1=C/c1cn(C(=O)c2c(Cl)cccc2Cl)c2ccccc12` gave a GI50 of 4.52 µM and a TGI of 20.1 µM.
In the case of `O=C(Nc1cccnc1)c1cccc([N+](=O)[O-])c1`, the GI50 is reported as greater than 100 µM and the TGI is reported as greater than 100 µM.
In the case of `CCC1=Cc2cc(OC)ccc2OC12C=Cc1cc(OC)ccc1O2` (configuration not stated), the GI50 is reported as 0.436 µM and the TGI is reported as greater than 100 µM.
Work on `C=C(C)[C@@H]1CC[C@]2(C(=O)O)CC[C@]3(C)[C@H](CC[C@@H]4[C@@]5(C)C[C@@H](CC#Cc6ccc(Br)cc6)C(=O)C(C)(C)[C@@H]5CC[C@]43C)[C@@H]12` yielded a GI50 of 7.25 µM and a TGI of 33.5 µM.
`COc1ccc(Cn2cnc3cc(C(=O)Nc4cccc5ccccc45)ccc32)c(OC)c1` gave a GI50 of 0.0358 µM and a TGI of 2.42 µM.
`O=C(Nc1cccc([N+](=O)[O-])c1)c1ccc2ccccc2c1O` showed a GI50 of 3.38 µM and a TGI of 71.3 µM.
In the case of `Cc1ccc(/C=C/C(=O)c2ccc(N)cc2)c(C)c1`, the GI50 is reported as 2.41 µM and the TGI is reported as 5.13 µM.
Work on `COc1cc(C(=O)/C=C/c2c(-c3ccc(F)cc3)nc3ncccn23)cc(OC)c1OC` yielded a GI50 of 2.75 µM and a TGI of 6.89 µM.
In the case of `O=C1/C(=C/c2ccc([N+](=O)[O-])o2)Oc2ccccc21`, the GI50 is reported as 1.17 µM and the TGI is reported as 2.94 µM.
Work on `COc1ccc(N(C)c2nc(Cl)nc3ccn(C)c23)cc1` yielded a GI50 of less than 0.01 µM and a TGI greater than 100 µM.
In the case of `O=C1/C(=C/c2ccc(Cl)cc2)CN(Cc2cn(CCNc3ccnc4cc(Cl)ccc34)nn2)C/C1=C\c1ccc(Cl)cc1`, the GI50 is reported as 0.234 µM and the TGI is reported as 0.644 µM.
Work on `COc1cc2c(cc1OCCCCCn1c(-c3ccco3)nc3ccccc31)N=C[C@@H]1CCCN1C2=O` yielded a GI50 of less than 0.01 µM and a TGI of less than 0.01 µM.
For `CC1CC(C)/C(=N/NC(N)=O)C(C(O)CC2CCC(=O)NC2=O)C1` (configuration not stated), the GI50 was 9.15 µM and the TGI was greater than 100 µM.
Work on `N#Cc1c(NC(=O)c2cccc3ccccc23)sc2c1CCCC2` yielded a GI50 of 0.154 µM and a TGI greater than 7.22 µM.
For `Cc1ccc(NSc2ccccc2[N+](=O)[O-])cc1`, the GI50 was 0.57 µM and the TGI was 16.3 µM.
`COc1ccc2cc3[n+](cc2c1OC)CCc1cc2c(cc1-3)OCO2` showed a GI50 of 0.675 µM and a TGI of 6.78 µM.
`CCCCCCCCCCCCSC(=NC)NC` showed a GI50 of 1.47 µM and a TGI of 3.14 µM.
Compound `COc1ccc2c(c1)C(=O)/C(=C/c1ccc([N+](=O)[O-])s1)O2` has a GI50 of 0.291 µM and a TGI of 1.36 µM.
`CS(=O)(=O)Nc1cccc(-c2ccc3c(NC(=O)C4CC4)n[nH]c3c2)c1` was tested, and the GI50 was 0.622 µM and the TGI was 24.8 µM.
Compound `COc1ccc(/C(=N\O)c2cc(OC)c(OC)c(OC)c2)c(OC)c1N` has a GI50 of 3.99 µM and a TGI greater than 100 µM.
With `O=C(NCC(=O)N1CC[C@H](NC2CCC(O)(c3ccc(-c4ncccn4)cn3)CC2)C1)c1cccc(C(F)(F)F)c1` (some centres not stated) the GI50 was 19.6 µM and the TGI was 95.4 µM.
For `O=C(CC(O)c1ccncc1)c1ccccc1` (configuration not stated), the GI50 was 24.3 µM and the TGI was greater than 100 µM.
`O=C1CSC(=S)N1Cc1cccnc1` was tested, and the GI50 was 3.82 µM and the TGI was 17 µM.
Work on `CC1(C)N=C(N)N=C(N)N1c1ccc(OCC(=O)N2CCOCC2)c(Cl)c1` yielded a GI50 of 1.23 µM and a TGI greater than 100 µM.
`COc1ccc(Cn2cc3c(c2-c2ccc(O)cc2)CCc2cnoc2-3)cc1` gave a GI50 of 0.245 µM and a TGI of 1.25 µM.
